Results on 27 molecules are retold here after patent US20220251116A1, “ALKYLBORONIC ACIDS AS ARGINASE INHIBITORS” (Guangdong Newopp Biopharmaceuticals Co., Ltd., priority 2019, published 2022).

Structures can show the parent of a compound that is named as a salt.

The IC50 is the concentration that inhibits the measured activity by half.

This assay concerns the target T1, recombinant human arginase 1 (Homo sapiens, UniProt P05089).
T1 sequence (P05089 1-322): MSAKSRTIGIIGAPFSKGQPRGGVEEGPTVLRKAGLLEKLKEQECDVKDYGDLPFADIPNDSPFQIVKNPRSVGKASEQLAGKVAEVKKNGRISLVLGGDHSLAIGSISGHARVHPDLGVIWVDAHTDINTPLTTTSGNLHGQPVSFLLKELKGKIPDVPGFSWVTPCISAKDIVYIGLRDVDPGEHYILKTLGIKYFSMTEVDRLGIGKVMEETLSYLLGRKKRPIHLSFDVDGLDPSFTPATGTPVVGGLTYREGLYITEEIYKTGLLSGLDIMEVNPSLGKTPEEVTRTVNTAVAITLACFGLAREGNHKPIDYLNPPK
The assay can be described thus: Arginase inhibitory activity test, enzymatic assay based on urea measurement (Arg 1).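 Further: enzyme incubated with L-arginine substrate and compound at 37 °C for 120 min, urea product detected colorimetrically by absorbance at 450 nm, background from wells lacking enzyme.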
Description: An enzymatic assay with recombinant human arginases 1 or 2 was used to measure inhibitory activity of the compounds. The assay is based on urea measurement, which is a product of L-arginine enzymatic degradation.
Briefly, arginase and the substrate solution containing L-arginine were incubated in the absence or presence of varying concentrations of compounds at 37° C. for 120 min. For the background correction, only the substrate solution was added without arginase. The urea detection reagent from QuantiChrome™ Urea assay kit (BioAssay Systems, CA) was added to develop the color product. After 60 min at room temperature, the absorbance was measured at 450 nm with CLARIOstar (BMG LABTECH). Urea was used as the standard.
As for `CC(C)(N)C(C)(C)NS(=O)(=O)N1C[C@H](CCCB(O)O)[C@](N)(C(=O)O)C1` (racemic) [Example 50, (racemic)-trans-3-amino-1-(N-(3-amino-2,3-dimethylbutan-2-yl)sulfamoyl)-4-(3-boronopropyl)pyrrolidine-3-carboxylic acid, 2,2,2-trifluoroacetic acid salt (1:2)], the half-inhibitory concentration (IC50) lay within 100 to 1000 nM.

In the case of `N=C(N)NC(=O)N1C[C@H](CCCB(O)O)[C@](N)(C(=O)O)C1` (racemic) [Example 51, (racemic)-trans-3-amino-4-(3-boronopropyl)-1-(carbamimidoylcarbamoyl)pyrrolidine-3-carboxylic acid, 2,2,2-trifluoroacetic acid salt (1:2)], the IC50 lay in the range of 100 to 1000 nM.

Regarding `CCN(C1CNC1)S(=O)(=O)N1C[C@H](CCCB(O)O)[C@](N)(C(=O)O)C1` (racemic) [Example 52, (racemic)-trans-3-amino-1-(N-(azetidin-3-yl)-N-ethylsulfamoyl)-4-(3-boronopropyl)pyrrolidine-3-carboxylic acid 2,2,2-trifluoroacetic acid salt (1:2)], the half-inhibitory concentration (IC50) is under 100 nM.

Turning to `NC(=O)NS(=O)(=O)N1C[C@H](CCCB(O)O)[C@](N)(C(=O)O)C1` (racemic) [Example 53, (racemic)-trans-3-amino-4-(3-boronopropyl)-1-(N-carbamoylsulfamoyl)pyrrolidine-3-carboxylic acid 2,2,2-trifluoroacetic acid salt (1:2)], the IC50 lay within 1000 to 10000 nM.

As for `N=C(N)NCCNS(=O)(=O)N1C[C@H](CCCB(O)O)[C@](N)(C(=O)O)C1` (racemic) [Example 54, (racemic)-trans-3-amino-4-(3-boronopropyl)-1-(N-(2-guanidinoethyl)sulfamoyl)pyrrolidine-3-carboxylic acid, 2,2,2-trifluoroacetic acid salt (1:2)], the IC50 is 100 to 1000 nM.

As to `COC(=O)[C@@H](N)CNS(=O)(=O)N1C[C@H](CCCB(O)O)[C@](N)(C(=O)O)C1` (racemic) [Example 55], the IC50 was under 100 nM.

`N[C@@H](CNS(=O)(=O)N1C[C@H](CCCB(O)O)[C@](N)(C(=O)O)C1)C(=O)O` (racemic) [Example 56]: the IC50 fell in the range of 100 to 1000 nM.

`N[C@H]1CC1NS(=O)(=O)N1C[C@H](CCCB(O)O)[C@](N)(C(=O)O)C1` (relative stereo) [Example 40, (3R,4S)-3-amino-1-(N-((cis)-2-aminocyclopropyl)sulfamoyl)-4-(3-boronopropyl)pyrrolidine-3-carboxylic acid, 2,2,2-trifluoroacetic acid salt (1:2)]: the half-inhibitory concentration (IC50) lay in the range of 100 to 1000 nM.

On to `CN(CCN)S(=O)(=O)N1C[C@H](CCCB(O)O)[C@](N)(C(=O)O)C1` [Example 27, (3R,4S)-3-amino-1-(N-(2-aminoethyl)-N-methylsulfamoyl)-4-(3-boronopropyl)pyrrolidine-3-carboxylic acid, 2,2,2-trifluoroacetic acid salt (1:2)], for which the 50% inhibitory concentration (IC50) is under 100 nM.

Take `NCCNc1c(N2C[C@H](CCCB(O)O)[C@](N)(C(=O)O)C2)c(=O)c1=O` [Example 28, (3R,4S)-3-amino-1-(2-((2-aminoethyl)amino)-3,4-dioxocyclobut-1-en-1-yl)-4-(3-boronopropyl)pyrrolidine-3-carboxylic acid, 2,2,2-trifluoroacetic acid salt (1:2)]: the half-inhibitory concentration (IC50) was under 100 nM.

As for `CN(CCN)c1c(N2C[C@H](CCCB(O)O)[C@](N)(C(=O)O)C2)c(=O)c1=O` [Example 29, (3R,4S)-3-amino-1-(2-((2-aminoethyl)(methyl)amino)-3,4-dioxocyclobut-1-en-1-yl)-4-(3-boronopropyl)pyrrolidine-3-carboxylic acid, 2,2,2-trifluoroacetic acid salt (1:2)], the IC50 is under 100 nM.

Regarding `CC(C)N(C1CNC1)S(=O)(=O)N1C[C@H](CCCB(O)O)[C@](N)(C(=O)O)C1` [Example 57, (3R,4S)-3-amino-1-(N-(azetidin-3-yl)-N-isopropylsulfamoyl)-4-(3-boronopropyl)pyrrolidine-3-carboxylic acid, 2,2,2-trifluoroacetic acid salt (1:2)], the IC50 was under 100 nM.

Consider `CC(NS(=O)(=O)N1C[C@H](CCCB(O)O)[C@](N)(C(=O)O)C1)C1(N)CC1` (stereo partly drawn) [Example 58, (3R,4S)-3-amino-1-(N-(1-(1-aminocyclopropyl)ethyl)sulfamoyl)-4-(3-boronopropyl)pyrrolidine-3-carboxylic acid, 2,2,2-trifluoroacetic acid salt (1:2)], for which the IC50 lay within 100 to 1000 nM.

Turning to `CCCN(C1CNC1)S(=O)(=O)N1C[C@H](CCCB(O)O)[C@](N)(C(=O)O)C1` [Example 59, (3R,4S)-3-amino-1-(N-(azetidin-3-yl)-N-propylsulfamoyl)-4-(3-boronopropyl)pyrrolidine-3-carboxylic acid, 2,2,2-trifluoroacetic acid salt (1:2)], the IC50 is under 100 nM.

As for `CC(C)CN(C1CNC1)S(=O)(=O)N1C[C@H](CCCB(O)O)[C@](N)(C(=O)O)C1` [Example 60, (3R,4S)-3-amino-1-(N-(azetidin-3-yl)-N-isobutylsulfamoyl)-4-(3-boronopropyl)pyrrolidine-3-carboxylic acid, 2,2,2-trifluoroacetic acid salt (1:2)], the IC50 was under 100 nM.

In the case of `CCCCN(C1CNC1)S(=O)(=O)N1C[C@H](CCCB(O)O)[C@](N)(C(=O)O)C1` [Example 61, (3R,4S)-3-amino-1-(N-(azetidin-3-yl)-N-butylsulfamoyl)-4-(3-boronopropyl)pyrrolidine-3-carboxylic acid, 2,2,2-trifluoroacetic acid salt (1:2)], the IC50 was under 100 nM.

On to `N[C@@]1(C(=O)O)CN(S(=O)(=O)N(Cc2ccccc2)C2CNC2)C[C@@H]1CCCB(O)O` [Example 62, (3R,4S)-3-amino-1-(N-(azetidin-3-yl)-N-benzylsulfamoyl)-4-(3-boronopropyl)pyrrolidine-3-carboxylic acid, 2,2,2-trifluoroacetic acid salt (1:2)], for which the IC50 was under 100 nM.

Consider `N[C@@]1(C(=O)O)CN(S(=O)(=O)N(CC2CC2)C2CNC2)C[C@@H]1CCCB(O)O` [Example 63, (3R,4S)-3-amino-1-(N-(azetidin-3-yl)-N-(cyclopropylmethyl)sulfamoyl)-4-(3-boronopropyl)pyrrolidine-3-carboxylic acid, 2,2,2-trifluoroacetic acid salt (1:2)], for which the IC50 was under 100 nM.

On to `N[C@@]1(C(=O)O)CN(S(=O)(=O)N(c2ccccc2)C2CNC2)C[C@@H]1CCCB(O)O` [Example 64, (3R,4S)-3-amino-1-(N-(azetidin-3-yl)-N-phenylsulfamoyl)-4-(3-boronopropyl)pyrrolidine-3-carboxylic acid, 2,2,2-trifluoroacetic acid salt (1:2)], for which the IC50 is under 100 nM.

Turning to `CCN(CC1(N)CC1)S(=O)(=O)N1C[C@H](CCCB(O)O)[C@](N)(C(=O)O)C1` [Example 65, (3R,4S)-3-amino-1-(N-((1-aminocyclopropyl)methyl)-N-ethylsulfamoyl)-4-(3-boronopropyl)pyrrolidine-3-carboxylic acid, 2,2,2-trifluoroacetic acid salt (1:2)], the 50% inhibitory concentration (IC50) is 1000 to 10000 nM.

With `N[C@@]1(C(=O)O)CN(S(=O)(=O)N(CC(F)(F)F)C2CNC2)C[C@@H]1CCCB(O)O` [Example 66, (3R,4S)-3-amino-1-(N-(azetidin-3-yl)-N-(2,2,2-trifluoroethyl)sulfamoyl)-4-(3-boronopropyl)pyrrolidine-3-carboxylic acid, 2,2,2-trifluoroacetic acid salt (1:2)], the IC50 is under 100 nM.

Turning to `NCCN(CC1CC1)S(=O)(=O)N1C[C@H](CCCB(O)O)[C@](N)(C(=O)O)C1` [Example 67, (3R,4S)-3-amino-1-(N-(2-aminoethyl)-N-(cyclopropylmethyl)sulfamoyl)-4-(3-boronopropyl)pyrrolidine-3-carboxylic acid, 2,2,2-trifluoroacetic acid salt (1:2)], the IC50 is under 100 nM.

In the case of `NC1(CN(CC2CC2)S(=O)(=O)N2C[C@H](CCCB(O)O)[C@](N)(C(=O)O)C2)CC1` [Example 68, (3R,4S)-3-amino-1-(N-((1-aminocyclopropyl)methyl)-N-(cyclopropylmethyl)sulfamoyl)-4-(3-boronopropyl)pyrrolidine-3-carboxylic acid, 2,2,2-trifluoroacetic acid salt (1:2)], the IC50 is under 100 nM.

As for `NC1CC1N(CC1CC1)S(=O)(=O)N1C[C@H](CCCB(O)O)[C@](N)(C(=O)O)C1` (stereo partly drawn) [Example 69, (3R,4S)-3-amino-1-(trans-N-(2-aminocyclopropyl)-N-(cyclopropylmethyl)sulfamoyl)-4-(3-boronopropyl)pyrrolidine-3-carboxylic acid, 2,2,2-trifluoroacetic acid salt (1:2)], the IC50 was under 100 nM.

Consider `N[C@@]1(C(=O)O)CN(S(=O)(=O)N(CC2CC2)[C@@H]2CCNC2)C[C@@H]1CCCB(O)O` [Example 70, (3R,4S)-3-amino-4-(3-boronopropyl)-1-(N-(cyclopropylmethyl)-N-((R)-pyrrolidin-3-yl)sulfamoyl)pyrrolidine-3-carboxylic acid, 2,2,2-trifluoroacetic acid salt (1:2)], for which the IC50 is under 100 nM.

On to `N[C@@]1(C(=O)O)CN(S(=O)(=O)N(CC2CC2)[C@H]2CCNC2)C[C@@H]1CCCB(O)O` [Example 71, (3R,4S)-3-amino-4-(3-boronopropyl)-1-(N-(cyclopropylmethyl)-N-((S)-pyrrolidin-3-yl)sulfamoyl)pyrrolidine-3-carboxylic acid, 2,2,2-trifluoroacetic acid salt (1:2)], for which the IC50 is under 100 nM.

Take `N[C@@]1(C(=O)O)CN(S(=O)(=O)N(CC2CC2)[C@H]2CCCNC2)C[C@@H]1CCCB(O)O` [Example 72, (3R,4S)-3-amino-4-(3-boronopropyl)-1-(N-(cyclopropylmethyl)-N-((S)-piperidin-3-yl)sulfamoyl)pyrrolidine-3-carboxylic acid, 2,2,2-trifluoroacetic acid salt (1:2)]: the IC50 was under 100 nM.
